Measurements published in patent publication US20230079819A1, “COMPOUNDS AND USES THEREOF” (Foghorn Therapeutics Inc., priority 2019, published 2023).

Assays:
BRM = biological target: T1, BRM (Homo sapiens, UniProt P51531); assay: ATPase catalytic activity of BRM, ADP-Glo in vitro biochemical assay; conditions: ATPase catalytic activity, 30 nM BRM, 400 μM ATP, read-out: BRM IP50 (μM)*
T1 construct: made in house; host or cells: High Five insect cells

BRG-1 = biological target: T2, BRG-1 (Homo sapiens, UniProt P51532); assay: ATPase catalytic activity of BRG-1, ADP-Glo in vitro biochemical assay; conditions: ATPase catalytic activity, 30 nM BRG-1, 400 μM ATP, read-out: BRG1 IP50 (μM)*
T2 construct: made in house; host or cells: High Five insect cells
T2 sequence (P51532 whole entry): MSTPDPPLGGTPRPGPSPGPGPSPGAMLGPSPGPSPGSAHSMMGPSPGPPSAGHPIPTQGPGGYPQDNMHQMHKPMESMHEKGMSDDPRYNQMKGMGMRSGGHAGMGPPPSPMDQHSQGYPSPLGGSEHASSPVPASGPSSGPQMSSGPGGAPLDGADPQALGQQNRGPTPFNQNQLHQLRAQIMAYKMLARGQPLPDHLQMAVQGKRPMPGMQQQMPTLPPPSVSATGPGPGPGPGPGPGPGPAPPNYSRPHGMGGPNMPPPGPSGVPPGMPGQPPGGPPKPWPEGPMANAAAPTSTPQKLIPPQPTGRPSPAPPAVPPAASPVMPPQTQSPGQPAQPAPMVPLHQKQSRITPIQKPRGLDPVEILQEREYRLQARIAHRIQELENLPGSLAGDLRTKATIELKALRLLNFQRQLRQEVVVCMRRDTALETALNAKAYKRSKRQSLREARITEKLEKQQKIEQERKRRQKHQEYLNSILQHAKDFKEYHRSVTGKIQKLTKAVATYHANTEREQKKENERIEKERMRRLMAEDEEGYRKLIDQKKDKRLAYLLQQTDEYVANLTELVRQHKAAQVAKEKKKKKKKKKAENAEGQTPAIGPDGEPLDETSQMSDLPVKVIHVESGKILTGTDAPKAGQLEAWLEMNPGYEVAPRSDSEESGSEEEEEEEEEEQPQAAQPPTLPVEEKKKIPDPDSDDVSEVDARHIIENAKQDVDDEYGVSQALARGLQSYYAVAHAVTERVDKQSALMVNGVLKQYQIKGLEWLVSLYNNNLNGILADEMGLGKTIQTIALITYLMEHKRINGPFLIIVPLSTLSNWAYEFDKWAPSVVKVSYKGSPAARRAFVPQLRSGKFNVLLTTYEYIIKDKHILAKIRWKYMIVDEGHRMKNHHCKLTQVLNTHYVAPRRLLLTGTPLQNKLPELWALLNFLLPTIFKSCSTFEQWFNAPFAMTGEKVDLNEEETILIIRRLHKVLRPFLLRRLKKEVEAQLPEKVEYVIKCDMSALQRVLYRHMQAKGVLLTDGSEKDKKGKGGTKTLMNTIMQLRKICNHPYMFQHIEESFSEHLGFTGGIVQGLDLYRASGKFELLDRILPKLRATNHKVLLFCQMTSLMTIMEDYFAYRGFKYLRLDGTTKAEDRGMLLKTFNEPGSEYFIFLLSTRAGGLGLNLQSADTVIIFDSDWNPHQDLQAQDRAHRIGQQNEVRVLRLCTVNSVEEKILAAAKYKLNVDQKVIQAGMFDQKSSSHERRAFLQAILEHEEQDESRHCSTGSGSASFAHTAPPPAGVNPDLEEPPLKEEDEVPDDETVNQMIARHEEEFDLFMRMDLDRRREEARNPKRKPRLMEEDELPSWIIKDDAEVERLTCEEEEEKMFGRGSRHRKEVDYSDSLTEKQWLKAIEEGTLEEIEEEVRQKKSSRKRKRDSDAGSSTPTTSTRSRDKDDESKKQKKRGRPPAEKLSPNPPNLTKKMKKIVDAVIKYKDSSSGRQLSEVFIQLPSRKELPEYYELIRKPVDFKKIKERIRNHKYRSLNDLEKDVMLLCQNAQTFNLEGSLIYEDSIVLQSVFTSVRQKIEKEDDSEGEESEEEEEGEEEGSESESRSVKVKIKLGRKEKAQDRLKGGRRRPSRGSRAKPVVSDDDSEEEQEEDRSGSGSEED

T1 sequence (P51531 whole entry): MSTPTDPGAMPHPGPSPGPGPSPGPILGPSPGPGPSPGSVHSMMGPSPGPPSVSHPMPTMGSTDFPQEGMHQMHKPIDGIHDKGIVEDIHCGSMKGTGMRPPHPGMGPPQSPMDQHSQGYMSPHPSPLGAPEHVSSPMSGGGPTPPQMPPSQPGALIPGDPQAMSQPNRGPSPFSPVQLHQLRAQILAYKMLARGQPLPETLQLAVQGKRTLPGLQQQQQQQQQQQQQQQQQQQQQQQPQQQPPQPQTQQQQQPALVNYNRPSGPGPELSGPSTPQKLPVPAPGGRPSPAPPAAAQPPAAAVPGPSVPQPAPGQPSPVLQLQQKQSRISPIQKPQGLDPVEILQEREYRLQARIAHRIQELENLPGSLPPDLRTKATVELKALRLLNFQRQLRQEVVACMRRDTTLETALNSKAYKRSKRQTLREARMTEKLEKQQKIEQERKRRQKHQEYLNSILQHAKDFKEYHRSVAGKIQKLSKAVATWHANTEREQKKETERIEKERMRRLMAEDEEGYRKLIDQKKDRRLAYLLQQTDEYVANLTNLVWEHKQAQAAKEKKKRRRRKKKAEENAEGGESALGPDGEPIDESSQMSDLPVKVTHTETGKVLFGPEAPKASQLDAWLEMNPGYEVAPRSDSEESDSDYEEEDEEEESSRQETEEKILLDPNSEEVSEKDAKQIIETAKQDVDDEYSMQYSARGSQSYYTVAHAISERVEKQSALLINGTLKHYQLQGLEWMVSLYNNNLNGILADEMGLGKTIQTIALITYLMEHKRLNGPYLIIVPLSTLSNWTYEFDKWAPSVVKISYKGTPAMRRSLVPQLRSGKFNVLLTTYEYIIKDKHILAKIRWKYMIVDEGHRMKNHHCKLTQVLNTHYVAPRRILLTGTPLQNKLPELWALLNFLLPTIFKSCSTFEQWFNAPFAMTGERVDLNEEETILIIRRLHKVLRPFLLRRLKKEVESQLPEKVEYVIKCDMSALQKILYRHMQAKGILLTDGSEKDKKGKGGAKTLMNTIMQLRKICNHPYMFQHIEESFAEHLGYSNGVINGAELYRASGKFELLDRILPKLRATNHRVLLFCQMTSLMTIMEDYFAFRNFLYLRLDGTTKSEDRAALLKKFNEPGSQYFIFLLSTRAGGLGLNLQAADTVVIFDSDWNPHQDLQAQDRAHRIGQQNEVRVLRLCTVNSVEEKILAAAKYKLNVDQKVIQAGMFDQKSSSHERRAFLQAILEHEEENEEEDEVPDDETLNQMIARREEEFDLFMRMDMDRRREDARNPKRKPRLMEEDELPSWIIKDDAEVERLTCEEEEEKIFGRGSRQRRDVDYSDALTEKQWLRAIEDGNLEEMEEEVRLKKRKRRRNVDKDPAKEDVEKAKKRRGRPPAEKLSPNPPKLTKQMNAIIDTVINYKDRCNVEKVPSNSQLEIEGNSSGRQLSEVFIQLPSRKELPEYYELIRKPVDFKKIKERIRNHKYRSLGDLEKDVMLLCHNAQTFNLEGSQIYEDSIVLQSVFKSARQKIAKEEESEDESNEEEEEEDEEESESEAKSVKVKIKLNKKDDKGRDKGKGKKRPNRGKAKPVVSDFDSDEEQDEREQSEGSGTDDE

SMILES | IC50 (BRM) | IC50 (BRG-1)
Cn1ccc2ccc(-c3csc(NC(=O)CNC(=O)c4ccn(S(C)(=O)=O)c4)n3)cc2c1=O [Compound 112, N-(2-((4-(2-methyl-1-oxo-1,2-dihydroisoquinolin-7-yl)thiazol-2-yl)amino)-2-oxoethyl)-1-(methylsulfonyl)-1H-pyrrole-3-carboxamide] | < 0.01 µM | < 0.01 µM
CS(=O)(=O)n1ccc(C(=O)NCC(=O)Nc2nc(-c3ccn(-c4ccncc4)n3)cs2)c1 [Compound 113, 1-(methylsulfonyl)-N-(2-oxo-2-((4-(1-(pyridin-4-yl)-1H-pyrazol-3-yl)thiazol-2-yl)amino)ethyl)-1H-pyrrole-3-carboxamide] | > 0.1 µM | > 0.1 µM
CS(=O)(=O)n1ccc(C(=O)NCC(=O)Nc2nc(-c3cccc(C4CCN(CC(F)(F)F)CC4)c3)cs2)c1 [Compound 114, 1-(methylsulfonyl)-N-(2-oxo-2-((4-(3-(1-(2,2,2-trifluoroethyl)piperidin-4-yl)phenyl)thiazol-2-yl)amino)ethyl)-1H-pyrrole-3-carboxamide] | > 0.1 µM | > 0.1 µM
Cc1nccn1-c1cccc(-c2csc(NC(=O)CNC(=O)c3ccn(S(C)(=O)=O)c3)n2)c1 [Compound 115, N-(2-((4-(3-(2-methyl-1H-imidazol-1-yl)phenyl)thiazol-2-yl)amino)-2-oxoethyl)-1-(methylsulfonyl)-1H-pyrrole-3-carboxamide] | > 0.1 µM | > 0.1 µM
CN(C(=O)c1cccc(-c2csc(NC(=O)CNC(=O)c3ccn(S(C)(=O)=O)c3)n2)c1)c1ccccc1 [Compound 116, N-(2-((4-(3-(methyl(phenyl)carbamoyl)phenyl)thiazol-2-yl)amino)-2-oxoethyl)-1-(methylsulfonyl)-1H-pyrrole-3-carboxamide] | > 1 µM | > 1 µM
CS(=O)(=O)n1ccc(C(=O)NCC(=O)Nc2nc(-c3cccc(C(=O)Nc4ccncc4)c3)cs2)c1 [Compound 117, 1-(methylsulfonyl)-N-(2-oxo-2-((4-(3-(pyridin-4-ylcarbamoyl)phenyl)thiazol-2-yl)amino)ethyl)-1H-pyrrole-3-carboxamide] | > 0.01 µM | > 0.01 µM
CN1CC(OCc2cccc(-c3csc(NC(=O)CNC(=O)c4ccn(C(C)(C)C)c4)n3)c2)C1 [Compound 118, 1-(tert-butyl)-N-(2-((4-(3-(((1-methylazetidin-3-yl)oxy)methyl)phenyl)thiazol-2-yl)amino)-2-oxoethyl)-1H-pyrrole-3-carboxamide] | > 1 µM | > 1 µM
Cn1ccc(OCc2cccc(-c3csc(NC(=O)CNC(=O)c4ccn(C(C)(C)C)c4)n3)c2)n1 [Compound 119, 1-(tert-butyl)-N-(2-((4-(3-(((1-methyl-1H-pyrazol-3-yl)oxy)methyl)phenyl)thiazol-2-yl)amino)-2-oxoethyl)-1H-pyrrole-3-carboxamide] | > 0.01 µM | > 0.1 µM
COc1cccc(-c2csc(NC(=O)CNC(=O)c3ccn(C(C)(C)C)c3)n2)c1 [Compound 120, 1-(tert-butyl)-N-(2-((4-(3-methoxyphenyl)thiazol-2-yl)amino)-2-oxoethyl)-1H-pyrrole-3-carboxamide] | > 0.01 µM | > 0.1 µM
COc1cccc(-c2csc(NC(=O)CNC(=O)c3ccn(S(C)(=O)=O)c3)n2)c1 [Compound 121, N-(2-((4-(3-methoxyphenyl)thiazol-2-yl)amino)-2-oxoethyl)-1-(methylsulfonyl)-1H-pyrrole-3-carboxamide] | > 0.01 µM | > 0.01 µM
CC(C)(C)n1ccc(C(=O)NCC(=O)Nc2nc(-c3cccc(OCC4COC4)c3)cs2)c1 [Compound 122, 1-(tert-butyl)-N-(2-((4-(3-(oxetan-3-ylmethoxy)phenyl)thiazol-2-yl)amino)-2-oxoethyl)-1H-pyrrole-3-carboxamide] | > 0.01 µM | > 0.01 µM
Cn1ccc2ccc(-c3csc(NC(=O)CNC(=O)c4ccn(C(C)(C)C)c4)n3)cc2c1=O [Compound 123, 1-(tert-butyl)-N-(2-((4-(2-methyl-1-oxo-1,2-dihydroisoquinolin-7-yl)thiazol-2-yl)amino)-2-oxoethyl)-1H-pyrrole-3-carboxamide] | < 0.01 µM | > 0.01 µM
CN1Cc2ccc(-c3csc(NC(=O)CNC(=O)c4ccn(C(C)(C)C)c4)n3)cc2CC1=O [Compound 124, 1-(tert-butyl)-N-(2-((4-(2-methyl-3-oxo-1,2,3,4-tetrahydroisoquinolin-6-yl)thiazol-2-yl)amino)-2-oxoethyl)-1H-pyrrole-3-carboxamide] | > 0.01 µM | > 0.1 µM
CC(C)(C)n1ccc(C(=O)NCC(=O)Nc2nc(-c3cccc(COC4CCOCC4)c3)cs2)c1 [Compound 125, 1-(tert-butyl)-N-(2-oxo-2-((4-(3-(((tetrahydro-2H-pyran-4-yl)oxy)methyl)phenyl)thiazol-2-yl)amino)ethyl)-1H-pyrrole-3-carboxamide] | > 0.01 µM | > 0.01 µM
CC(OC1CCOCC1)c1cccc(-c2csc(NC(=O)CNC(=O)c3ccn(C(C)(C)C)c3)n2)c1 (centres unmarked) [Compound 126, 1-(tert-butyl)-N-(2-oxo-2-((4-(3-(1-((tetrahydro-2H-pyran-4-yl)oxy)ethyl)phenyl)thiazol-2-yl)amino)ethyl)-1H-pyrrole-3-carboxamide] | > 0.01 µM | > 0.1 µM
CN1CCC(OCc2cccc(-c3csc(NC(=O)CNC(=O)c4ccn(C(C)(C)C)c4)n3)c2)CC1 [Compound 127, 1-(tert-butyl)-N-(2-((4-(3-(((1-methylpiperidin-4-yl)oxy)methyl)phenyl)thiazol-2-yl)amino)-2-oxoethyl)-1H-pyrrole-3-carboxamide] | > 0.1 µM | > 0.1 µM
CN1CCC(OCc2cccc(-c3csc(NC(=O)CNC(=O)c4ccn(C(C)(C)C)c4)n3)c2)C(F)(F)C1 (centres unmarked) [Compound 128, 1-(tert-butyl)-N-(2-((4-(3-(((3,3-difluoro-1-methylpiperidin-4-yl)oxy)methyl)phenyl)thiazol-2-yl)amino)-2-oxoethyl)-1H-pyrrole-3-carboxamide] | > 0.1 µM | > 0.1 µM
CC(C)(C)n1ccc(C(=O)NCC(=O)Nc2nc(-c3cccc(COC4CCOC4)c3)cs2)c1 (centres unmarked) [Compound 129, 1-(tert-butyl)-N-(2-oxo-2-((4-(3-(((tetrahydrofuran-3-yl)oxy)methyl)phenyl)thiazol-2-yl)amino)ethyl)-1H-pyrrole-3-carboxamide] | > 0.01 µM | > 0.01 µM
CN1CCc2cc(-c3csc(NC(=O)CNC(=O)c4ccn(S(C)(=O)=O)c4)n3)ccc2C1 [Compound 130, N-(2-((4-(2-methyl-1,2,3,4-tetrahydroisoquinolin-6-yl)thiazol-2-yl)amino)-2-oxoethyl)-1-(methylsulfonyl)-1H-pyrrole-3-carboxamide] | > 0.1 µM | > 0.1 µM
Cn1ncc2ccc(-c3csc(NC(=O)CNC(=O)c4ccn(C(C)(C)C)c4)n3)cc21 [Compound 131, 1-(tert-butyl)-N-(2-((4-(1-methyl-1H-indazol-6-yl)thiazol-2-yl)amino)-2-oxoethyl)-1H-pyrrole-3-carboxamide] | > 0.01 µM | > 0.1 µM
Cn1ncc2ccc(-c3csc(NC(=O)CNC(=O)c4ccn(S(C)(=O)=O)c4)n3)cc21 [Compound 132, N-(2-((4-(1-methyl-1H-indazol-6-yl)thiazol-2-yl)amino)-2-oxoethyl)-1-(methylsulfonyl)-1H-pyrrole-3-carboxamide] | > 0.01 µM | > 0.01 µM
Cn1c(=O)ccc2ccc(-c3csc(NC(=O)CNC(=O)c4ccn(C(C)(C)C)c4)n3)cc21 [Compound 133, 1-(tert-butyl)-N-(2-((4-(1-methyl-2-oxo-1,2-dihydroquinolin-7-yl)thiazol-2-yl)amino)-2-oxoethyl)-1H-pyrrole-3-carboxamide] | > 0.1 µM | > 0.1 µM
CN1Cc2ccc(-c3csc(NC(=O)CNC(=O)c4ccn(C(C)(C)C)c4)n3)cc2N(C)C1=O [Compound 134, 1-(tert-butyl)-N-(2-((4-(1,3-dimethyl-2-oxo-1,2,3,4-tetrahydroquinazolin-7-yl)thiazol-2-yl)amino)-2-oxoethyl)-1H-pyrrole-3-carboxamide] | > 0.01 µM | > 0.1 µM
CC(C)(C)n1ccc(C(=O)NCC(=O)Nc2nc(-c3cccc(CO[C@H]4CCOC4)c3)cs2)c1 [Compound 135, (S)-1-(tert-butyl)-N-(2-oxo-2-((4-(3-(((tetrahydrofuran-3-yl)oxy)methyl)phenyl)thiazol-2-yl)amino)ethyl)-1H-pyrrole-3-carboxamide] | > 0.01 µM | > 0.01 µM
CC(C)(C)n1ccc(C(=O)NCC(=O)Nc2nc(-c3cccc(CO[C@@H]4CCOC4)c3)cs2)c1 [Compound 136, (R)-1-(tert-butyl)-N-(2-oxo-2-((4-(3-(((tetrahydrofuran-3-yl)oxy)methyl)phenyl)thiazol-2-yl)amino)ethyl)-1H-pyrrole-3-carboxamide] | > 0.01 µM | > 0.01 µM
CN1CCc2ccc(-c3csc(NC(=O)CNC(=O)c4ccn(S(C)(=O)=O)c4)n3)cc2C1=O [Compound 137, N-(2-((4-(2-methyl-1-oxo-1,2,3,4-tetrahydroisoquinolin-7-yl)thiazol-2-yl)amino)-2-oxoethyl)-1-(methylsulfonyl)-1H-pyrrole-3-carboxamide] | > 0.01 µM | < 0.01 µM
CS(=O)(=O)n1ccc(C(=O)NCC(=O)Nc2nc(-c3cccc(C4(N)CCOCC4)c3)cs2)c1 [Compound 138, N-(2-((4-(3-(4-aminotetrahydro-2H-pyran-4-yl)phenyl)thiazol-2-yl)amino)-2-oxoethyl)-1-(methylsulfonyl)-1H-pyrrole-3-carboxamide] | > 1 µM | > 1 µM
CC(C)(O)c1cccc(-c2csc(NC(=O)CNC(=O)c3ccn(S(C)(=O)=O)c3)n2)c1 [Compound 139, N-(2-((4-(3-(2-hydroxypropan-2-yl)phenyl)thiazol-2-yl)amino)-2-oxoethyl)-1-(methylsulfonyl)-1H-pyrrole-3-carboxamide] | > 0.1 µM | > 0.1 µM
